The source of these data is patent US9878999B2, “Proteasome chymotrypsin-like inhibition using PI-1833 analogs” (H. Lee Moffitt Cancer Center and Research Institute, Inc., priority 2011, dated 2018).

Usually IC50 stands for the concentration needed to halve the response being measured. The melting point is the temperature of the solid-liquid transition. As a reminder, the inhibition is the change of the read-out against control, counted positive when it falls.

Values joined by “and” are separate entries in the source; they are usually repeats but may differ in a detail not shown here. Equal values may be shown once. Read-outs that look alike come from different tables or passages of the source.

Data set [1] concerns the target CT-L activity of purified 20S proteasome (Homo sapiens, UniProt P20618+P28074). Description: in vitro CT-L activity of purified 20S proteasome. The conditions noted are these: for inhibition at 10 µM / Screening Results (% Inhibition @ 10 μM) Chymotrypsin-like: Table 5, @ 10 μM; for inhibition at 10 µM: read-out: Screening Results (% Inhibition @ 10 μM) Chymotrypsin-like. The format is biochemical.

Data set [2] has as its target T1, CT-L activity in human breast cancer MDA-MB-468 cells (Homo sapiens, UniProt P20618+P28074).
T1 construct: endogenous in cells; host or cells: MDA-MB-468
Nature of the data set: whole cell CT-L activity in MDA-MB-468 cells. Format: cell-based.

Where [3] appears, read: Table 1, read-out: IC50 (μM) Chymotrypsin-like activity.
Setting [4] is: Table 5, read-out: IC50 (μM) Chymotrypsin-like.
Setting [5] is: Table 9, read-out: IC50 (μM) Chymotrypsin-like.

Compound `CC(C)N(Cc1nc(-c2ccccc2)no1)C(=O)COc1ccc(C(=O)O)cc1` [11t, 4-(2-(Isopropyl((3-phenyl-1,2,4-oxadiazol-5-yl)methyl)amino)-2-oxoethoxy)benzoic acid] yielded a melting point of 211.3 to 213.8 °C. Besides, the 50% inhibitory concentration (IC50) in data set [1] (setting [3]) stood at 27.8 ± 20.8 µM. Besides, the IC50 in data set [1] (read-out: IC50, in vitro CT-L) stood at 27 µM.
In the case of `Cc1ccc(OCC(=O)N(Cc2nc(-c3ccc(C)cc3)no2)C(C)C)cc1` [compound 1, N-Isopropyl-N-((3-p-tolyl-1,2,4-oxadiazol-5-yl)methyl)-2-(p-tolyloxy)acetamide], the IC50 in data set [1] (setting [3]) was 0.63 ± 0.35 µM; in data set [1] (Table 2, read-out: IC50 (μM) Chymotrypsin-like activity), 0.63 ± 0.35 µM; in data set [1] (Table 7, 20S CT-L proteasome activity, read-out: IC50 (μM) CT-L), 0.716 ± 0.27 µM; in data set [1] (read-out: IC50, in vitro CT-L) it was 0.65 ± 0.39 µM; in data set [2] (MDA-MB-468 breast cancer cells, read-out: whole cell IC50 activity), 1.1 µM and 1 µM.
In the case of `Cc1ccc(OCC(=O)N(Cc2nc(-c3ccc(C)cc3)no2)C(C)C)cc1` [drawing 107], the half-maximal inhibitory concentration (IC50) in data set [1] (setting [4]) was determined as 0.63 ± 0.35 µM; in data set [2] (Table 5, MDA-MB-468, read-out: Whole cell IC50 (μM) Chymotrypsin-like), 1.1 µM.
For `CC(C)N(Cc1nc(-c2ccccc2)no1)C(=O)COc1ccc2cc(Br)ccc2c1` [drawing 133], the inhibition at 10 µM in data set [1] was under 70%.
For the compound `CCc1ccc(OCC(=O)N(Cc2nc(-c3ccccc3)no2)C(C)C)cc1` [drawing 134], the IC50 in data set [1] (setting [4]) is 0.267 ± 0.05 µM.
Consider `O=C(COc1ccc(C(F)(F)F)cc1)N(Cc1nc(-c2ccccc2)no1)C1CC1` [drawing 135], for which, in data set [1], the “Screening Results (% Inhibition @ 10 μM) Chymotrypsin-like” value is 35.35% and 33.80%; the inhibition at 10 µM turned out to be 27.3%. In data set [1] (setting [4]), the concentration for half-maximal inhibition (IC50) came out at 6.37 µM.
Regarding `Cc1cccc(OCC(=O)N(Cc2nc(-c3ccccc3)no2)C(C)C)c1` [drawing 136], the inhibition at 10 µM in data set [1] was under 70%.
With `Cc1ccc(OCC(=O)N(Cc2nc(-c3ccccn3)no2)C(C)C)cc1` [drawing 138], in data set [1] (setting [4]), the 50% inhibitory concentration (IC50) is 3.75 ± 1.47 µM.
On the same count and under the same terms, the same measure for `Cc1ccc(OCC(=O)N(Cc2nc(-c3ccccc3)no2)C(C)C)cc1` [drawing 139]: 0.22 ± 0.084 µM.
In the case of `CC(C)N(Cc1nc(-c2ccccc2)no1)C(=O)COc1ccc(C(=O)OC(C)(C)C)cc1` [drawing 141], the inhibition at 10 µM in data set [1] was -62 ± 26.3%.
`Cc1ccc(OCC(=O)N(Cc2nc(-c3ccc(C)cc3)no2)C(C)(C)C)cc1` [drawing 142]: the inhibition at 10 µM in data set [1] is -108 ± 119%.
Turning to `CC(C)N(Cc1nc(-c2ccccc2)no1)C(=O)COc1ccc(C(=O)O)cc1` [drawing 143], the “Screening Results (% Inhibition @ 10 μM) Chymotrypsin-like” value in data set [1] is 27.76 ± 20.83 (n = 5) %.
In the case of `Cc1ccc(OCC(=O)N(CCc2nc(-c3ccccc3)no2)C(C)C)cc1` [drawing 144], the inhibition at 10 µM in data set [1] was 31.4 ± 11.2%.
Take `CCc1ccc(OCC(=O)N(Cc2nc(-c3cccnc3)no2)C(C)C)cc1` [drawing 145]: in data set [1] (setting [4]), the concentration for half-maximal inhibition (IC50) was determined as 0.099 ± 0.032 µM.
For the compound `CC(C)CC(NC(=O)c1ccc(OCC(=O)N(Cc2nc(-c3ccccc3)no2)C(C)C)cc1)C(=O)O` (stereo not drawn) [drawing 146], the “Screening Results (% Inhibition @ 10 μM) Chymotrypsin-like” value in data set [1] is −174.75 ± 134.18 (n = 5) %.
On to `Cc1ccc(OCC(=O)N(Cc2nc(-c3ccncc3)no2)C(C)C)cc1` [drawing 147], for which the inhibition at 10 µM in data set [1] worked out at 95.72 ± 0.88%. In addition, the IC50 in data set [1] (setting [4]) came out at 0.37 ± 0.046 µM.
For `Cc1ccc(NCC(=O)N(Cc2nc(-c3ccccc3)no2)C(C)C)cc1` [drawing 148], in that order: 81.5 ± 2.77% and 5.67 ± 0.96 µM.
With `Cc1ccc(OCC(=O)N(Cc2nc3ccccc3[nH]2)C(C)C)cc1` [drawing 151], in data set [1], the inhibition at 10 µM worked out at 80.4 ± 3.04%. In addition, the half-inhibitory concentration (IC50) in data set [1] (setting [4]) was 12.5 ± 2.96 µM.
Consider `CC(C)CC(NC(=O)c1ccc(OCC(=O)N(Cc2nc(-c3ccccc3)no2)C(C)C)cc1)C(=O)O` (stereo not drawn) [drawing 153], for which the “Screening Results (% Inhibition @ 10 μM) Chymotrypsin-like” value in data set [1] was −149.24 ± 157.49 (n = 5) %.
As to `Cc1ccc(OCC(=O)N(Cc2nc(-c3ccccc3)no2)C(C)C)cn1` [drawing 154], the inhibition at 10 µM in data set [1] was found to be 70.6 ± 5.09%. Besides, the half-maximal inhibitory concentration (IC50) in data set [1] (setting [4]) worked out at 4 ± 0.89 µM.
For `CC(C)N(Cc1nc(-c2cccnc2)no1)C(=O)COc1ccc(O)cc1` [drawing 155], in that order: 78.4 ± 6.33% and 0.98 ± 0.5 µM.
For `CC(C)N(Cc1nc(-c2ccccc2)no1)C(=O)COc1ccc(O)cc1` [drawing 156] the same measures were -5.85 ± 23.4% and 10.1 ± 4.52 µM.
For `CCCc1ccc(OCC(=O)N(Cc2nc(-c3cccnc3)no2)C(C)C)cc1` [drawing 157], in that order: 92.3 ± 2.19% and 0.032 ± 0.00015 µM.
In the case of `CCCCc1ccc(OCC(=O)N(Cc2nc(-c3cccnc3)no2)C(C)C)cc1` [drawing 159], in data set [1] (setting [4]), the half-inhibitory concentration (IC50) was determined as 0.039 ± 0.011 µM.
As for `CC(C)N(Cc1nc(-c2cccnc2)no1)C(=O)c1cc2ccccc2o1` [drawing 160], the concentration for half-maximal inhibition (IC50) in data set [1] (setting [4]) came out at 0.379 ± 0.063 µM.
Same read-out and setting: the same measure for `CC(C)N(Cc1nc(-c2cccnc2)no1)C(=O)COc1ccccc1` [drawing 161]: 3.12 ± 1.11 µM; for `Cc1ccc(O[C@@H](C)C(=O)N(Cc2nc(-c3cccnc3)no2)C(C)C)cc1` [drawing 162]: 0.214 ± 0.053 µM; for `Cc1ccc(O[C@H](C)C(=O)N(Cc2nc(-c3cccnc3)no2)C(C)C)cc1` [drawing 163]: 7.52 ± 2.13 µM.
As for `CCCCCc1ccc(OCC(=O)N(Cc2nc(-c3cccnc3)no2)C(C)C)cc1` [drawing 164], the half-inhibitory concentration (IC50) in data set [1] (setting [4]) is 0.121 ± 0.04 µM.
As to `CCCCCCc1ccc(OCC(=O)N(Cc2nc(-c3cccnc3)no2)C(C)C)cc1` [drawing 165], the concentration for half-maximal inhibition (IC50) in data set [1] (setting [4]) was determined as 0.428 ± 0.038 µM.
For the compound `CCCCc1ccc(OCC(=O)N(Cc2nc(-c3cnccn3)no2)C(C)C)cc1` [drawing 166], the IC50 in data set [1] (setting [4]) came out at 0.107 ± 0.013 µM.
As for `CCCc1ccc(OCC(=O)N(Cc2nc(-c3cnccn3)no2)C(C)C)cc1` [drawing 167], the half-inhibitory concentration (IC50) in data set [1] (setting [4]) stood at 0.105 ± 0.031 µM.
Same read-out and setting: next, `CCCc1ccc(OCC(=O)N(Cc2nc(-c3cncnc3)no2)C(C)C)cc1` [drawing 168]: 0.032 ± 0.003 µM.
On the same count and under the same terms, the same measure for `CC(C)N(Cc1nc(-c2cccnc2)no1)C(=O)COc1ccc(C2CCCCC2)cc1` [drawing 169]: 1.36 ± 0.184 µM; for `CC(C)N(Cc1nc(-c2cccnc2)no1)C(=O)COc1ccc(C(C)(C)C)cc1` [drawing 170]: 65.9 ± 33.7 µM.
On to `CC(C)c1ccc(OCC(=O)N(Cc2nc(-c3cccnc3)no2)C(C)C)cc1` [drawing 171], for which the IC50 in data set [1] (setting [4]) worked out at 0.436 ± 0.073 µM.
For `Cc1ccc(OCC(=O)N(Cc2nc(-c3ccc(C)cc3)no2)C2CC2)cc1` [drawing 172], in data set [1], the inhibition at 10 µM is -8.36 ± 19%.
For `CC(C)Cc1ccc(OCC(=O)N(Cc2nc(-c3cccnc3)no2)C(C)C)cc1` [drawing 173], the IC50 in data set [1] (setting [4]) amounted to 0.14 ± 0.052 µM.
Still for that read-out and setting: next, `CCCc1ccc(OCC(=O)N(Cc2nc(-c3ncccn3)no2)C(C)C)cc1` [drawing 174]: 1.27 ± 0.226 µM.
Take `CC(C)N(Cc1nc(-c2ccccc2)no1)C(=O)CCc1ccc(C(F)(F)F)cc1` [drawing 180]: the IC50 in data set [1] (Table 8, 20S CT-L proteasome activity, read-out: IC50 (μM) CT-L) was found to be 15.7 µM.
Take `CC(C)N(Cc1nc(-c2ccccc2)no1)C(=O)CCc1ccc(C(F)(F)F)cc1` [drawing 183]: the 50% inhibitory concentration (IC50) in data set [1] (setting [5]) was 15.7 µM.
The same measure, in the same setting: next, `Cc1ccc(OCC(=O)N(C)Cc2nc(-c3ccc(C)cc3)no2)cc1` [drawing 186]: 29.9 µM; `Cc1ccc(OCC(=O)N(Cc2nc(-c3ccc(C)cc3)no2)CC(C)C)cc1` [drawing 187]: 2.37 ± 0.4 µM.
Regarding “N-Isopropyl-N-((2-phenyloxazol-4-yl)methyl)-2-(p-tolyloxy)acetamide [SO3-023]”, the IC50 in data set [1] (Table 4, read-out: IC50 (μM) Chymotrypsin-like activity) is 0.45 ± 0.18 µM.
